Results published in patent US10913740B2, “JAK kinase inhibitor compounds for treatment of respiratory disease” (THERAVANCE BIOPHARMA R&D IP, LLC, priority 2015, dated 2021).
Read-outs that look alike come from different tables or passages of the source.

Key:
[1] = test system: IL-13 induced pSTAT6 in lung tissue; test: Murine model of IL-13 induced pSTAT6 induction in lung tissue; format: in vivo; conditions: mouse lung, Assay 5 conditions
Procedure: Il-13 is an important cytokine underlying the pathophysiology of asthma (Kudlacz et al. Eur. J. Pharmacol, 2008, 582, 154-161). IL-13 binds to cell surface receptors activating members of the Janus family of kinases (JAK) which then phosphorylate STAT6 and subsequently activates further transcription pathways. In the described model, a dose of IL-13 was delivered locally into the lungs of mice to induce the phosphorylation of STAT6 (pSTAT6) which is then measured as the endpoint.
Adult balb/c mice from Harlan were used in the assay. […] Animals were placed in lateral recumbency post dose and monitored for full recovery from anesthesia before being returned to their home cage. Four hours later, animals were once again briefly anesthetized and challenged with either vehicle or IL-13 (0.03 μg total dose delivered, 50 μL total volume) via oral aspiration before being monitored for recovery from anesthesia and returned to their home cage. One hour after vehicle or IL-13 administration, lungs were collected for both pSTAT6 detection using an anti-pSTAT6 ELISA (rabbit mAb capture/coating antibody; mouse mAb detection/report antibody: anti-pSTAT6-pY641; secondary antibody: anti-mouse IgG-HRP) and analyzed for total drug concentration as described above in Assay 4. […]

[2] = Pharmacokinetics in plasma and lung in mouse; format: in vivo; conditions: ratio of lung AUC (μg hr/g) to plasma AUC (μg hr/mL), oral aspiration, 0.2 mg/mL, 50 uL
Procedure: Plasma and lung levels of test compounds and ratios thereof were determined in the following manner. BALB/c mice from Charles River Laboratories were used in the assay. Test compounds were individually formulated in 20% propylene glycol in pH 4 citrate buffer at a concentration of 0.2 mg/mL and 50 uL of the dosing solution was introduced into the trachea of a mouse by oral aspiration. At various time points (typically 0.167, 2, 6, 24 hr) post dosing, blood samples were removed via cardiac puncture and intact lungs were excised from the mice. Blood samples were centrifuged (Eppendorf centrifuge, 5804R) for 4 minutes at approximately 12,000 rpm at 4° C. to collect plasma. Lungs were padded dry, weighed, and homogenized at a dilution of 1:3 in sterile water. Plasma and lung levels of test compound were determined by LC-MS analysis against analytical standards constructed into a standard curve in the test matrix. A lung to plasma ratio was determined as the ratio of the lung AUC in μg hr/g to the plasma AUC in μg hr/mL, where AUC is conventionally defined as the area under the curve of test compound concentration vs. time.

[3] = Dynamic moisture sorption assessment; format: physicochemical; conditions: humidity range of 5% to 90% relative humidity, room temperature (25° C.)
Procedure: Dynamic moisture sorption (DMS) measurement was performed using a VTI atmospheric microbalance, SGA-100 system (VTI Corp., Hialeah, Fla. 33016). A weighed sample was used and the humidity was lowest possible value (close to 0% RH) at the start of the analysis. The DMS analysis consisted of an initial drying step (˜0% RH) for 120 minutes, followed by two cycles of sorption and desorption with a scan rate of 5% RH/step over the humidity range of 5% RH to 90% RH. The DMS run was performed isothermally at 25° C.

[4] = target: JAK1 (Homo sapiens (Human), UniProt P23458); test: LanthaScreen JAK biochemical assay (JAK1); conditions: vs Examples 1, 7, 13, 6 respectively
[5] = test system: interleukin-13 induced STAT6 phosphorylation in BEAS-2B human lung epithelial cells; test: AlphaScreen JAKI cellular potency assay (BEAS-2B); format: cell-based; conditions: vs Examples 1, 7, 13, 6 respectively
Procedure: The AlphaScreen JAKI cellular potency assay was carried out by measuring interleukin-13 (IL-13, R&D Systems) induced STAT6 phosphorylation in BEAS-2B human lung epithelial cells (ATCC). The anti-STAT6 antibody (Cell Signaling Technologies) was conjugated to AlphaScreen acceptor beads (Perkin Elmer), while the anti-pSTAT6 (pTyr641) antibody (Cell Signaling Technologies) was biotinylated using EZ-Link Sulfo-NHS-Biotin (Thermo Scientific).
BEAS-2B cells were grown at 37° C. in a 5% CO2 humidified incubator in 50% DMEM/50% F-12 medium (Life Technologies) supplemented with 10% FBS (Hyclone), 100 U/mL penicillin, 100 μg/mL streptomycin (Life Technologies), and 2 mM GlutaMAX (Life Technologies). On day 1 of the assay, cells were seeded at a 7,500 cells/well density in white poly-D-lysine-coated 384-well plates (Corning) with 25 μL medium, and were allowed to adhere overnight in the incubator. On day 2 of the assay, the medium was removed and replaced with 12 μL of assay buffer (Hank's Balanced Salt Solution/HBSS, 25 mM HEPES, and 1 mg/ml bovine serum albumin/BSA) containing dose-responses of test compounds. Compounds were serially diluted in DMSO and then diluted another 1000-fold in media to bring the final DMSO concentration to 0.1%. Cells were incubated with test compounds at 37° C. for 1 h, and followed by the addition of 12 μl of pre-warmed IL-13 (80 ng/ml in assay buffer) for stimulation. After incubating at 37° C. for 30 min, the assay buffer (containing compound and IL-13) was removed, and 10 μl of cell lysis buffer (25 mM HEPES, 0.1% SDS, 1% NP-40, 5 mM MgCl2, 1.3 mM EDTA, 1 mM EGTA, and supplement with Complete Ultra mini protease inhibitors and PhosSTOP from Roche Diagnostics). The plates were shaken at ambient temperature for 30 min before the addition of detection reagents. […] After a minimum of 2 h incubation, the assay plates were read on the EnVision plate reader.
Results were expressed as the negative logarithm of the IC50 value, pIC50.

[6] = mouse, in vivo
Procedure: Adult balb/c mice from Harlan were used in the assay. On the day of study, animals were lightly anesthetized with isoflurane and administered either vehicle or test compound (0.5 mg/mL, 50 μL total volume over several breaths) via oral aspiration. Animals were placed in lateral recumbency post dose and monitored for full recovery from anesthesia before being returned to their home cage. Four hours later, animals were once again briefly anesthetized and challenged with either vehicle or IL-13 (0.03 μg total dose delivered, 50 μL total volume) via oral aspiration before being monitored for recovery from anesthesia and returned to their home cage. One hour after vehicle or IL-13 administration, lungs were collected for both pSTAT6 detection using an anti-pSTAT6 ELISA (rabbit mAb capture/coating antibody; mouse mAb detection/report antibody: anti-pSTAT6-pY641; secondary antibody: anti-mouse IgG-HRP) and analyzed for total drug concentration as described above in Assay 4.
Selected compounds of the invention were characterized in both the pharmacokinetic assay (Assay 4) and pharmacodynamic assay (Assay 5). A good correlation was observed between test compound concentration in lung determined in the pharmacokinetic assay and in the pharmacodynamic assay at a similar time points post dosing. Observation of significant compound concentration in the mouse lung in the pharmacodynamic assay confirmed that the observed inhibition of IL-13 induced pSTAT6 induction was a result of the activity of the test compound.

Sequence of JAK1 (P23458 whole entry): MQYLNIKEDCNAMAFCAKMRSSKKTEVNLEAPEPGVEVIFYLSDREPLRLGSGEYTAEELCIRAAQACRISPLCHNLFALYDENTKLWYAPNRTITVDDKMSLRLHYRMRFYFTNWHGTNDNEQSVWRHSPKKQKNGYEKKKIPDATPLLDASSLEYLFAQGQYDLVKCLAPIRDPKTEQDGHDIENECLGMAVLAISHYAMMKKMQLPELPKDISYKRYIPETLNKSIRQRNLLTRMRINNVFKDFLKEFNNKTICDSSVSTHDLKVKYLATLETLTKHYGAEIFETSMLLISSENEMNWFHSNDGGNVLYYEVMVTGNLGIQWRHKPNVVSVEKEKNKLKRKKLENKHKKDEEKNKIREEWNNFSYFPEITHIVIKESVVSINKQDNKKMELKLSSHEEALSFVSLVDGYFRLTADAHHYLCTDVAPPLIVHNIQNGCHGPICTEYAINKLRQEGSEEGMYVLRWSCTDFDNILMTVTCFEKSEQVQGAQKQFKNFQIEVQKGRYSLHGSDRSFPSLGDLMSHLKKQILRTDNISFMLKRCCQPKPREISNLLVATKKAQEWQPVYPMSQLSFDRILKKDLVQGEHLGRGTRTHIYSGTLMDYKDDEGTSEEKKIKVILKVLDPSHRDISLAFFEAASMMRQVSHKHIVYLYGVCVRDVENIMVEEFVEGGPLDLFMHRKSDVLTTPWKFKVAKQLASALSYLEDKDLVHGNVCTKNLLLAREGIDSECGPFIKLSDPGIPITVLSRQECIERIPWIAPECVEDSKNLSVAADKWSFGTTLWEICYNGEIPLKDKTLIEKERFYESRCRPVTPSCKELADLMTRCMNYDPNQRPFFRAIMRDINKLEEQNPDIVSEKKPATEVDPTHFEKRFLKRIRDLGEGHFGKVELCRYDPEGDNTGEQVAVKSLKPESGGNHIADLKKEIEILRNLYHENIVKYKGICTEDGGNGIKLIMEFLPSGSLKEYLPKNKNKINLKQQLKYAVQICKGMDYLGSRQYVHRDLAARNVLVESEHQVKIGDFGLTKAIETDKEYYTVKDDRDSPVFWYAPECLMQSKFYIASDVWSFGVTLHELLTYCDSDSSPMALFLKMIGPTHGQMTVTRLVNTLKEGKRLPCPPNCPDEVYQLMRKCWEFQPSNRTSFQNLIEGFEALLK

CCc1cc(O)c(F)cc1-c1ccc2c(-c3nc4c([nH]3)CCN(CCNC3(C#N)CC3)C4)n[nH]c2c1 [Example 3-1]
pSTAT6 inhibition in the pharmacodynamic assay [1]: noted as exceptions

CCc1cc(O)c(F)cc1-c1ccc2c(-c3nc4c([nH]3)CCN(C[C@@H]3COCCN3)C4)n[nH]c2c1 [Example 14, (R)-5-Ethyl-2-fluoro-4-(3-(5-(morpholin-3-ylmethyl)-4,5,6,7-tetrahydro-1H-imidazo[4,5-c]pyridin-2-yl)-1H-indazol-6-yl)phenol]
Lung to Plasma ratio Assay 4 [2]: A (A denotes a ratio >100)

CCc1cc(O)c(F)cc1-c1ccc2c(-c3nc4c([nH]3)CCN(C[C@H]3COCCN3)C4)n[nH]c2c1 [Example 13, (S)-5-Ethyl-2-fluoro-4-(3-(5-(morpholin-3-ylmethyl)-4,5,6,7-tetrahydro-1H-imidazo[4,5-c]pyridin-2-yl)-1H-indazol-6-yl)phenol]
Lung to Plasma ratio Assay 4 [2]: A (A denotes a ratio >100)

CCc1cc(O)c(F)cc1-c1ccc2c(-c3nc4c([nH]3)CCN(CC3CNC3)C4)n[nH]c2c1 [Example 14-7]
Lung to Plasma ratio Assay 4 [2]: A (A denotes a ratio >100)

CCc1cc(O)c(F)cc1-c1ccc2c(-c3nc4c([nH]3)CCN(C3CCN(C)CC3)C4)n[nH]c2c1 [crystalline hydrate, 5-ethyl-2-fluoro-4-(3-(5-(1-methylpiperidin-4-yl)-4,5,6,7-tetrahydro-1H-imidazo[4,5-c]pyridin-2-yl)-1H-indazol-6-yl)phenol]
weight gain (dynamic moisture sorption) [3]: less than 0.12%

CCc1cc(O)c(F)cc1-c1ccc2c(-c3nc4c([nH]3)CCN(C3CCC(C)CC3)C4)n[nH]c2c1 (stereo not drawn) [Example C-4]
fold less potent than the corresponding compound of the invention in the enzyme assay [4]: 2.5 fold
fold less potent than the corresponding compound of the invention in the BEAS-2B cellular assay [5]: 6 fold
factor by which lung concentration was smaller than for the corresponding compound of the invention [6]: 23

CCc1cc(O)c(F)cc1-c1ccc2c(-c3nc4c([nH]3)CCN(C3CN(C5CCS(=O)(=O)C5)C3)C4)n[nH]c2c1 (stereo not drawn) [Example 1-15]
pSTAT6 inhibition in the pharmacodynamic assay [1]: noted as exceptions

CCc1cc(O)c(F)cc1-c1ccc2c(-c3nc4c([nH]3)CCN(CCN3CCC[C@@H]3C)C4)n[nH]c2c1 [Example 15, (S)-5-ethyl-2-fluoro-4-(3-(5-(2-(2-methylpyrrolidin-1-yl)ethyl)-4,5,6,7-tetrahydro-1H-imidazo[4,5-c]pyridin-2-yl)-1H-indazol-6-yl)phenol]
Lung to Plasma ratio Assay 4 [2]: A (A denotes a ratio >100)

CCc1cc(O)c(F)cc1-c1ccc2c(-c3nc4c([nH]3)CCN(C[C@@H]3CCCN3C)C4)n[nH]c2c1 [Example 11, (S)-5-ethyl-2-fluoro-4-(3-(5-((1-methylpyrrolidin-2-yl)methyl)-4,5,6,7-tetrahydro-1H-imidazo[4,5-c]pyridin-2-yl)-1H-indazol-6-yl)phenol]
Lung to Plasma ratio Assay 4 [2]: A (A denotes a ratio >100)

CCc1cc(O)c(F)cc1-c1ccc2c(-c3nc4c([nH]3)CCN(CCN(C)CC(C)C)C4)n[nH]c2c1 [Example 3-33]
Lung to Plasma ratio Assay 4 [2]: A (A denotes a ratio >100)

CCc1cc(O)c(F)cc1-c1ccc2c(-c3nc4c([nH]3)CCN(C3CC(C)C3)C4)n[nH]c2c1 (stereo not drawn) [Example C-1, 5-Ethyl-2-fluoro-4-(3-(5-(3-methylcyclobutyl)-4,5,6,7-tetrahydro-1H-imidazo[4,5-c]pyridin-2-yl)-1H-indazol-6-yl)phenol]
fold less potent than the corresponding compound of the invention in the enzyme assay [4]: 2 fold
factor by which lung concentration was smaller than for the corresponding compound of the invention ([6]; balb/c, 5 h): 36

CCc1cc(O)c(F)cc1-c1ccc2c(-c3nc4c([nH]3)CCN(CCNC3CC(OC)C3)C4)n[nH]c2c1 (stereo not drawn) [Example 8, 5-Ethyl-2-fluoro-4-(3-(5-(2-((3-methoxycyclobutyl)amino)ethyl)-4,5,6,7-tetrahydro-1H-imidazo[4,5-c]pyridin-2-yl)-1H-indazol-6-yl)phenol]
Lung to Plasma ratio Assay 4 [2]: A (A denotes a ratio >100)

CCc1cc(O)c(F)cc1-c1ccc2c(-c3nc4c([nH]3)CCN(CCC(C)C)C4)n[nH]c2c1 [Example C-2]
fold less potent than the corresponding compound of the invention in the enzyme assay [4]: 3 fold
fold less potent than the corresponding compound of the invention in the BEAS-2B cellular assay [5]: 6 fold
factor by which lung concentration was smaller than for the corresponding compound of the invention [6]: 52

CCc1cc(O)c(F)cc1-c1ccc2c(-c3nc4c([nH]3)CCN(CC3CCCOC3)C4)n[nH]c2c1 (stereo not drawn) [Example C-3]
fold less potent than the corresponding compound of the invention in the enzyme assay [4]: 6 fold
fold less potent than the corresponding compound of the invention in the BEAS-2B cellular assay [5]: 3 fold
factor by which lung concentration was smaller than for the corresponding compound of the invention [6]: 13
